These results are taken from PMC9170688, “Gametocyte-specific and all-blood-stage transmission-blocking chemotypes discovered from high throughput screening on Plasmodium falciparum gametocytes” (Communications Biology, 2022).

“Also recorded” adds a separate entry of the source.

The test system of experiment [1] is HeLa cells. The experiment in a line: HeLa cell proliferation assay (CellTiter Glo). To be noted: Homo sapiens. Format: cell-based, human. As for the experimental part:
In addition, we tested the 84 compounds in a dose-response fashion on HeLa cells to quantitatively monitor their cytotoxicity potential.
HeLa cells (CCL-2, ATCC, USA) were cultured in DMEM without phenol red (Thermo, 11880, USA) + 10% FBS + 1X PenStrep + 1X Gln. They were plated in a 384-well plate (Thermo, 4334-11, USA) to a density of 2000 cells per well and let recover for 4 h at 37 °C, 5% CO2 in a humidified atmosphere. After the recovery, compounds were transferred to assay plates as per compound preparation method. Assay plates were then incubated at 37 °C, 5% CO2 in a humidified atmosphere for 72 h. Cell viability was measured by the CellTiTer Glo (Promega, G8080, USA) as per manufacturer instruction.

Experiment [2] concerns P. falciparum NF54 hsp86-PpyRE13 gametocytes. The experiment in a line: P. falciparum gametocyte luminescence assay (PfLuc), line NF54 hsp86-PpyRE13. The experiment is classed as cell-based, Plasmodium falciparum. Conditions: for IC50: Plasmodium falciparum, NF54, read-out: Pf Gametocytes NF54 HSP86 (IC50 nM); for gametocyte specificity / selectivity (gametocytes vs asexual stages): NF54 hsp86-PpyRE13, ratio of asexual stage (pLDH) to gametocyte (PfLuc) IC50. As for the experimental part:
(§1) To exclude false positive compounds that may interfere with the click beetle CBG99 luciferase signal and to confirm the activity on gametocytes produced by other P. falciparum lines, we tested the above 638 compounds at a single concentration of 10 µM on gametocytes from two NF54 strain derived lines: pfs16-GFP-PyLUC (Photinus pyralis luciferase under the same pfs16 promoter)[14],[16],[27] and hsp86-PpyRE13 that was generated for this work to express the mutated Photinus pyralis PpyRE13 luciferase in gametocytes under the promoter of the pfhsp86 gene.
(§2) With the selected 84 compounds, the subsequent step aimed at determining the gametocyte inhibition potency and the parasite stage selectivity between the gametocytes and the asexual stages in the NF54 hsp86-PpyRE13. […] Similar data were obtained considering the gametocyte IC50 values measured in the NF54 pfs16-GFP-PyLUC strain (see Supplementary Data 2).
(§3) Parasite gametocyte luminescence assays were performed in 384-well plates (Thermo, 4332, USA) by infected red blood cells seeded at 40 µL/well at a haematocrit of 0.625% for the strain 3D7elo1-pfs16-CBG99, 1.875% for both strains NF54 hsp86-PpyRE13 and NF54 pfs16-GFP-PyLUC. Assay were performed in the medium: 10.44 g/L RPMI 1640 Medium (Gibco, 51800043), 5.95 g/L HEPES (Sigma, H4034), 50 mg/L Hypoxantine (Sigma, 56700), 10% heat inactivated human serum, 10 ml of Neomycin solution (Sigma, N1142) and 2.1 g/L NaHCO3 (Sigma, 144-55-8). Compounds or DMSO as control were pre dispensed on plates, from 10 mM DMSO stock solutions, via an acoustic droplet ejection device (ATS-100, EDC Biosystems) to achieve the final desired concentration. Assay plates were incubated for 48 h at 37 °C in 4% CO2, 3% O2, and 93% N2 modified atmosphere. After incubation, 20 µL/well of a solution of luciferin (Regis, 1-360242-200) potassium/sodium salt (300 µg/ml) are added to the assay plates and read at suitable luminescence detection after 1 min incubation at room temperature. The whole HTS was performed in 7 rounds of 30–80 plates each in two months’ time.

In experiment [3] the test system is P. falciparum NF54 pfs16-GFP-PyLUC gametocytes. The experiment in a line: P. falciparum gametocyte luminescence assay (PfLuc), line NF54 pfs16-GFP-PyLUC. The experiment is classed as cell-based, Plasmodium falciparum. To be noted: Plasmodium falciparum, NF54, read-out: Pf Gametocytes NF54 pfs16 (IC50 nM). As for the experimental part:
as §1, §2, §3

For experiment [4], the system named is P. falciparum NF54 hsp86-PpyRE13 asexual stages. The experiment in a line: P. falciparum asexual stage assay (pLDH). Format: cell-based, Plasmodium falciparum. To be noted: Plasmodium falciparum, NF54, read-out: NF54 Hsp86 PpYRE13 (IC50 nM). The method, then:
as §2
Parasite proliferation assays were performed in 384-well plates (Thermo, 4332, USA) with a starting parasitemia of 0.25% at a haematocrit of 2% by quantification of parasite lactate dehydrogenase (pLDH). Compounds or DMSO as control were pre dispensed on plates, from 10 mM DMSO stock solutions, via an acoustic droplet ejection device (ATS-100, EDC Biosystems) to achieve de final desired concentration. Assay plates were incubated for 72 h at 37 °C in 4% CO2, 3% O2, and 93% N2 modified atmosphere. After the incubation period, plates are frozen at −80 °C for two h and then thawed at room temperature for 2 h. Then, 50 µL of the developer solution (70 mM Tris-HCl pH 8.0, 0.5% Tween-20, 100 mM Lithium L-Lactate, 125 µM nitro blue tetrazolium, 2 U/ml diaphorase and 100 µM 3-Acetylpyridine Adenine Dinucleotide) are added to each well and let to react for 10 min. Absorbance was then read at 650 nm by a suitable spectrophotometer.

The test system of experiment [5] is P. falciparum strain NF54-hsp70-luc stage V gametocytes fed to Anopheles stephensi mosquitoes. The experiment in a line: whole plant or invertebrate. To be noted: for transmission blocking activity in SMFA (words, rank): tested at 1 and 10 µM. Format: in vivo, Plasmodium falciparum. The method, then:
The above selected 30 compounds were subjected to a phenotypic male gamete exflagellation assay. This assay measures the viability of male gametocytes by quantitating the final step of maturation into motile microgametes in vitro[24]. This process naturally occurs in the mosquito gut within minutes from the blood meal. The acquisition of time lapse videos of gamete motility in bright field microscopy and the subsequent analysis to count exflagellation centres were performed in an automated HTS format in 384-well plates. The compounds were tested in two independent biological replicates at the concentration of 1 µM. […] The standard membrane feeding assay (SMFA) is used to measure the parasite transmission through mosquito. In this assay, mature stage V gametocytes of the P. falciparum strain NF54-hsp70-luc were treated with 1 and 10 µM of the nine selected compounds for 24 h, added with human red blood cells and serum to achieve a haematocrit of 50% and then fed to mosquitoes. Luminescence was analyzed in the mosquito salivary glands 8 days post-feeding.
SMFA was performed commercially by TropiQ Health Sciences (Nijmegen, The Netherlands). Test samples were diluted in DMSO and then in RPMI medium (Gibco, 51800043) to achieve a final DMSO concentration of 0.1%. Diluted samples were combined with stage V gametocytes from P. falciparum strain NF54-hsp70-luc and incubated for 24 h. Subsequently, human red blood cells and human serum with the sample were added to achieve a haematocrit of 50%. The blood meal was fed to two-day old Anopheles stephensi mosquitoes that were starved the night prior to the blood meal. […] Mosquito infection was analyzed 8 days post-feeding by luminescence measurements of whole mosquitoes as described previously. For each feeder, luminescence intensity was analyzed in 15–24 mosquitoes per feeder (N = 1, n = 15–24). Luminescence background levels were determined from 15–24 uninfected mosquitoes. Controls: vehicle (0.1% DMSO) in duplicate.

For the compound `Clc1ccc(Nc2nc(-c3ccccn3)cs2)nc1` [Compound 39], the half-maximal inhibitory concentration (IC50) (in general, the concentration at which inhibition is half-maximal) in experiment [1] turned out to be 2950 nM; in experiment [2] it was 382 nM; in experiment [3], 308 nM; in experiment [4] it was 540 nM. For the same compound, in experiment [5] (1 µM), the “SMFA (average # of events) 1 µM” value is on record as 1612.33 ± 1234.03. Also, the “SMFA (average # of events) 10 µM” value in experiment [5] was 7.33 ± 2.82. Also, the “transmission blocking activity in SMFA (words, rank)” value (from here on “transmission blocking activity”) in experiment [5] (24 h treatment) is “efficiently blocks parasite transmission”.

Consider `OC(c1ccc(Cl)cc1)C1CCN(CCCN2CCC(C(O)c3ccc(Cl)cc3)CC2)CC1` (centres unmarked) [Compound 13], for which the 50% inhibitory concentration (IC50) in experiment [1] came to 4510 nM; in experiment [2] it was 1600 nM; in experiment [3], 582 nM; in experiment [4], 1740 nM. Further, the “SMFA (average # of events) 1 µM” value in experiment [5] (1 µM) stood at 488.21 ± 436.95. For the same compound, the “SMFA (average # of events) 10 µM” value in experiment [5] worked out at 7.92 ± 1.44. Also, the “transmission blocking activity” value in experiment [5] (24 h treatment) is given as “second most active”.

Consider `COc1cc(CNCC2CCNCC2)ccc1OCc1cccc(Cl)c1` [Compound 53], for which the half-inhibitory concentration (IC50) was 5340 nM in experiment [1], 1820 nM in experiment [2], 876 nM in experiment [3] and 2360 nM in experiment [4]. For the same compound, the “SMFA (average # of events) 1 µM” value in experiment [5] (1 µM) was 10.04 ± 12.81. The “transmission blocking in SMFA” value in experiment [5] (1 µM, 24 h treatment) was “most active; also recorded: equivalent to that of the positive control MMV0048”. Moreover, the “SMFA (average # of events) 10 µM” value in experiment [5] amounted to 6.29 ± 1.85. For the same compound, the inhibition – broadly, the share of the control response that was lost under treatment – at 1 µM in experiment [5] (read-out: inhibition of parasite transmission (SMFA)) was about 100%.

Consider `Cc1ccc2nc(-c3ccccc3)c(CSc3cccc[n+]3[O-])n2c1` [Compound 16], for which the IC50 in experiment [1] was 9510 nM; in experiment [2] it was 219 nM; in experiment [3], 167 nM; in experiment [4], 1270 nM. For the same compound, the “gametocyte specificity / selectivity (gametocytes vs asexual stages)” value in experiment [2] is “around 6 fold”. Also, the “SMFA (average # of events) 1 µM” value in experiment [5] (1 µM) amounted to 1226.92 ± 1130.89. Further, the “SMFA (average # of events) 10 µM” value in experiment [5] is 9.5 ± 9.34. Also, in experiment [5] (24 h treatment), the “transmission blocking activity” value is “third most active”.

As to `COc1ccccc1Cn1cc2c(-c3ccc(F)cc3)nnc-2c2cc(OC)c(OC)cc21` [Compound 31], the IC50 in experiment [1] stood at 5000 nM; in experiment [2] it was 496 nM; in experiment [3] it was 277 nM; in experiment [4] it was 967 nM. In addition, in experiment [5] (1 µM), the “SMFA (average # of events) 1 µM” value is recorded as 2637.13 ± 1570.14. Moreover, the “SMFA (average # of events) 10 µM” value in experiment [5] is listed as 1559.87 ± 983.2. The “transmission blocking activity” value in experiment [5] (24 h treatment) is “moderate transmission blocker”.

Take `COc1ccc(Nc2cc(C)nc(Nc3ccc(NC(=O)c4cc(C)cc(C)c4)cc3)n2)cc1` [Compound 64]: the IC50 worked out at 8100 nM in experiment [1], 215 nM in experiment [2], 264 nM in experiment [3] and 437 nM in experiment [4]. Besides, in experiment [5] (1 µM), the “SMFA (average # of events) 1 µM” value is listed as 3707.46 ± 3510.94. Besides, the “SMFA (average # of events) 10 µM” value in experiment [5] is given as 3885.67 ± 4295.41.

Consider `O=C(c1ccc([N+](=O)[O-])o1)N1CCC(Cn2cnc3ccccc32)CC1` [Compound 69], for which the IC50 stood at 11300 nM in experiment [1], 1500 nM in experiment [2], 555 nM in experiment [3] and 6150 nM in experiment [4]. Further, the “gametocyte specificity / selectivity (gametocytes vs asexual stages)” value in experiment [2] was “around six”. Also, the “SMFA (average # of events) 1 µM” value in experiment [5] (1 µM) turned out to be 2021.92 ± 1839.86. Further, in experiment [5], the “SMFA (average # of events) 10 µM” value was determined as 6.17 ± 1.81.

Take `COc1ccc(NC(=O)Nc2ccc(Nc3nc(C)cc(Nc4ccc(C)cc4)n3)cc2)cc1` [Compound 65]: the IC50 in experiment [1] came to 4500 nM; in experiment [2] it was 431 nM; in experiment [3], 480 nM; in experiment [4], 904 nM. Moreover, in experiment [5] (1 µM), the “SMFA (average # of events) 1 µM” value worked out at 4000.86 ± 3085.37. The “SMFA (average # of events) 10 µM” value in experiment [5] was 5.96 ± 1.99.

Take `Cc1ccc(Nc2cc(C)nc(Nc3ccc(NC(=O)c4cc5ccccc5oc4=O)cc3)n2)cc1` [Compound 63]: the IC50 came to 8690 nM in experiment [1], 1870 nM in experiment [2], 225 nM in experiment [3] and 1730 nM in experiment [4]. In addition, in experiment [5] (1 µM), the “SMFA (average # of events) 1 µM” value was found to be 2365.33 ± 1952.29. Further, the “SMFA (average # of events) 10 µM” value in experiment [5] is given as 6.33 ± 1.79.
